For assay [1], the target named is T1, Electrophorus electricus AChE (EeAChE) (Electrophorus electricus, UniProt O42275).
T1 construct: purchased Sigma-Aldrich (Milan, Italy)
Briefly: Percent inhibition of EeAChE, Ellman's spectrophotometric method. Type of assay: biochemical. The protocol: All other chemical and biological reagents and solvents used were of the highest analytical, commercially available grade. The water, utilized for the preparation of the phosphate buffer and of the compound solutions, was distilled and filtered on nylon membrane filters with a 0.2 μm pore size with the Millipore Filtration apparatus before each use. Micropipettes Labmate (BRAND Dig. 10–100 μL; Dig. 100–1000 μL; Dig. 0.1–2 μL) and Transferpette (HIGH TECH LAB LM200: 20–200 μL; LM5000: 1000–5000 μL) were used to collect the samples. The assays were carried out by a double beam UV–vis Lambda 40 Perkin Elmer spectrophotometer using optical polystyrene cuvettes (10 × 10 × 45 mm, 340–800 nm optical transparency); each measure was repeated at least in triplicate. […] The spectrophotometric method of Ellman[25] with minor modifications was used to evaluate the inhibition of ChEs. […] EeAChE and eqBChE were periodically tested to evaluate the effective enzymatic activity.
For all the synthesized compounds, the percentages of inhibition toward AChE of Electrophorus electricus (EeAChE) and equine BChE (eqBChE) were evaluated.
Three milliliters of a solution in 0.1 M phosphate buffer (pH = 7.4) containing DTNB (0.25 mM) and EeAChE (0.083 UmL^–1) or eqBChE (0.083 UmL^–1) was placed in a polystyrene cuvette of 1.0 cm path length; 1 μL of a […] With this solution, the blank was made. […] Each experiment was repeated at least in triplicate.
In general terms: In Ellman's method for cholinesterases, released thiocholine reacts with DTNB.

For another assay, the target named is T2, tau protein (Homo sapiens, UniProt P10636).
T2 construct: expressed in transfected cells; host or cells: E. coli BL21 (DE3) with pTARA and pRKT42
Briefly: Inhibition of tau aggregation in intact E. coli cells, thioflavin-S. Particulars: [I] = 100 μM. Type of assay: cell-based, Escherichia coli. As to the method:
The anti-aggregating effect of the tested compounds was monitored by a cell-based assay in intact Escherichia coli cells that overexpress either the Aβ42 peptide or tau protein, which upon overexpression form insoluble inclusion bodies that were stained with thioflavin-S, an amyloid specific dye.[36] The percentages of inhibition toward Aβ42 and tau aggregation were determined at an inhibitor concentration of 100 μM, and the obtained results are reported in Table 7.
E. coli BL21 (DE3) competent cells were transformed with pTARA containing the RNA-polymerase gene of T7 phage (T7RP) under the control of the promoter PBAD. E. coli BL21 (DE3) with pTARA competent cells were transformed with the pRKT42 vector encoding four repeats of the tau protein in two inserts. For overnight culture preparation, 10 mL of the M9 medium containing 0.5% of glucose, 50 μg·mL^–1 of ampicillin, and 12.5 μg·mL^–1 of chloramphenicol was inoculated with a colony of BL21 (DE3) bearing the plasmids to be expressed at 37 °C. For expression of the tau protein, the required volume of overnight culture to obtain 1:500 dilution was added to the fresh M9 minimal medium containing 0.5% of glucose, 50 μg·mL^–1 of ampicillin, 12.5 μg·mL^–1 of chloramphenicol, and 250 μM Th-S. The bacterial culture was grown at 37 °C and 250 rpm. When the cell density reached OD600 = 0.6, an amount of 980 μL of culture was transferred into Eppendorf tubes of 1.5 mL with 10 μL of each compound to be tested in DMSO and 10 μL of arabinose at 25%. The final concentration of the drug was fixed at 100 μM. The samples were grown overnight at 37 °C and 1400 rpm using a ThermoMixer (Eppendorf, Hamburg, Germany). As negative control (maximal presence of tau), the same amount of DMSO without the drug was added in the sample. In parallel, non-induced samples (in the absence of arabinose) were also prepared and used as positive controls (absence of tau). In addition, these samples were used to assess the potential intrinsic toxicity of the compounds and to confirm the correct bacterial growth.
Th-S (T1892) and other chemical reagents were purchased from Sigma (St. Louis, MO). The Th-S stock solution ([…]) was prepared in double-distilled water purified through a Milli-Q system (Millipore, USA). Th-S fluorescence and absorbance were tracked using a DTX 800 plate reader Multimode Detector equipped with a Multimode Analysis Software (Beckman-Coulter, USA). Filters of 430/35 and 485/20 nm were used for the excitation and emission wavelengths, respectively. Filters of 535/25 nm were also used for the absorbance determination. To normalize the Th-S fluorescence as a function of the bacterial concentration, OD600 was obtained using a Shimadzu UV-2401 PC UV–vis spectrophotometer (Shimadzu, Japan). Note that the fluorescence normalization was carried out considering as 100% the Th-S fluorescence of the bacterial cells expressing the peptide or protein in the absence of drug and 0% the Th-S fluorescence of the bacterial cells not expressing the peptide or protein. A minimum of five independent assays (with three replicates for assay) was performed for each tested compound. More assays were performed to obtain a SEM < 5% with a maximum of 10 independent assays.

The target in assay [2] is T1, Electrophorus electricus AChE (EeAChE). Briefly: Inhibition constant and mechanism vs EeAChE, Dixon's method. The class given is biochemical. The protocol: . The recorded data were analyzed with the enzyme kinetic module of SigmaPlot to find the best fitting model of inhibition using the linear regression analysis. The reference kinetic models used in the regression analysis were competitive, noncompetitive, uncompetitive, and mixed. Each determination was repeated five times, and incorrect values were discarded to reduce the standard deviation within the limit of 5%. In this way, the regression lines obtained have a linear regression coefficient (R^2) higher than 0.95. Dixon’s plots of all tested compounds are reported in the Supporting Information (Figures S1–S12).
18, 22, 25, 26, 28, and 30 toward eqBChE). For each compound, a 500 μM stock solution was prepared in H2O/DMSO or in 10^–2 M HCl and diluted in water to prepare solutions of opportune concentrations to introduce in the cuvette volumes ranging from 30 to 100 μL, to obtain the desired final concentrations. The maximum amount of DMSO used for the preparation of the stock solution was calculated to have a DMSO content in cuvette <0.033%.
Three milliliters of 0.1 M phosphate buffer (pH = 7.4) containing DTNB (0.25 mM) and EeAChE (0.083 UmL^–1) or eqBChE (0.083 UmL^–1) was mixed with the opportune volume of the inhibitor solution to obtain a final inhibitor concentration in cuvette between 90 and 1800 nM. With this solution, the blank was made. […]. The absorbance variations were measured at 412 nm at 25 °C between 0.5 and 1.5 min.
To determine the inhibition constants (Ki) and the inhibition mechanisms, the rates of hydrolysis at three different concentrations of substrate in the presence of five different concentrations of inhibitor were measured.

Structures are written as SMILES. Where two headings read alike, the source gives them in different places.

T1 sequence (O42275 24-633): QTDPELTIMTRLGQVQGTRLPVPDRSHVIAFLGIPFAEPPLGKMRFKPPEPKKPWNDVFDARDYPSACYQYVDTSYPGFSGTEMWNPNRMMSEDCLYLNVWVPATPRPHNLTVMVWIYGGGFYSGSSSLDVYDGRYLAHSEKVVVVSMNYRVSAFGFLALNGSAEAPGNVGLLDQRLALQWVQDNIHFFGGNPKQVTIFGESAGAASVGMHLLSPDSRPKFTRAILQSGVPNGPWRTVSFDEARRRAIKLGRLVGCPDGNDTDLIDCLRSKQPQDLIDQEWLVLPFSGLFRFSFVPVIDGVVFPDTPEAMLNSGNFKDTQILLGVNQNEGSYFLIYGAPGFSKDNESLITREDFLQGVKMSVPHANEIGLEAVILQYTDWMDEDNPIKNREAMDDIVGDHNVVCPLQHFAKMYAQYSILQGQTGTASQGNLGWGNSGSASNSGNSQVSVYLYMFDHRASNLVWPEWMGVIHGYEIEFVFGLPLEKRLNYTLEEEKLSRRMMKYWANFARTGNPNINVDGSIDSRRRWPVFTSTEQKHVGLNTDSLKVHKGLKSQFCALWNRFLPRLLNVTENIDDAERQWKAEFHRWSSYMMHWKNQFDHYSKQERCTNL
T2 sequence (P10636 1-441 isoform P10636-8): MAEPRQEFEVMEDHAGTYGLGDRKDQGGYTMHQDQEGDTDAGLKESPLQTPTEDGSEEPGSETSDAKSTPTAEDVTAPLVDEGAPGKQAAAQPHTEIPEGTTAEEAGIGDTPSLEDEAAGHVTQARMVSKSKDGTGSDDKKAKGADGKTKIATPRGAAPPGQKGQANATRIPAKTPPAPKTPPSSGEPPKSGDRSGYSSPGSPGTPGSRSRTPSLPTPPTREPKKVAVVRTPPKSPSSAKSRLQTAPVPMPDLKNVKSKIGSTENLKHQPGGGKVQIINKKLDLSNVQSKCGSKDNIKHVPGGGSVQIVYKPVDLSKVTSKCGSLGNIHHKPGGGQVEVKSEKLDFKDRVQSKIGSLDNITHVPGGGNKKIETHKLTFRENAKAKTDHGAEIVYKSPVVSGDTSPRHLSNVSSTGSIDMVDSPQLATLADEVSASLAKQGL

Turning to `c1ccc(CNCCCCCNc2ccccn2)cc1` [Compound 23, N^1-Benzyl-N^5-(pyridin-2-yl)pentane-1,5-diamine], the inhibition (commonly how much of the control response was suppressed) at 9 µM stood at 53.5 ± 1.4% in assay [1] (read-out: % inhibition vs EeAChE ± SD (9 uM), 9 uM, supplement csv) and 53.5 ± 1.4% in assay [1] (read-out: % inhibition vs EeAChE ± SD, [I] 9 μM, 0.0833 U/mL enzyme, 100 μM acetylthiocholine). Besides, the inhibition at 90 µM in assay [1] (read-out: % inhibition vs EeAChE ± SD (90 uM), 90 uM, supplement csv) stood at 56.5 ± 3%. Also, the inhibition at 900 µM in assay [1] (read-out: % inhibition vs EeAChE ± SD (900 uM), 900 uM, supplement csv) was found to be 10.3 ± 0.8%. In addition, in assay [1] (read-out: % inhibition vs EeAChE ± SD, [I] 900 nM, 0.0833 U/mL enzyme, 100 μM acetylthiocholine), the inhibition at 0.9 µM was 10.3 ± 0.8%. 100 µM produced 7% inhibition against tau protein. The “inhibition mechanism on EeAChE” value in assay [2] (Dixon's plot, best fitting model) was “mixed”. The “α, EeAChE” value in assay [2] (mixed inhibition, α > 1 free enzyme, α < 1 enzyme–substrate complex) stood at 2.2. Besides, in assay [2] (three substrate and five inhibitor concentrations, read-out: Ki ± SD, EeAChE), the Ki (as a rule, a dissociation constant, usually derived from enzyme kinetics or from competition with a known ligand) came to 0.743 ± 0.316 µM.

(Values after publication PMC8569681, “New Pyrimidine and Pyridine Derivatives as Multitarget Cholinesterase Inhibitors: Design, Synthesis, and In Vitro and In Cellulo Evaluation” (ACS Chemical Neuroscience, 2021).)
